# Assay results: patent US9034826B2, “Use of epidermal growth factor for the morphofunctional restoration of peripheral nerves in diabetic neuropathy” (Centro de Ingenieria Genetica y Biotecnologia, priority 2006, dated 2015)
# How the values were obtained:
# Format in all cases: in vivo, Wistar rats
# [1] = system: Redox state in fragments of sciatic nerve; assay: Redox profile in fragments of sciatic nerve, reversion study (Example 2); details: established diabetic neuropathy, 100 μg EGF in 1 ml i.p. 3 days a week for one month
# Protocol: (§1) The aim of this study was to evaluate the neurorestoration effect of the pharmaceutical composition. Male Wistar rats between 200-250 grams of body is weight received a subcutaneous injection of streptozotocin at 75 mg/kg in sodium citrate buffer, and were allowed to evolve until 120 days after disease induction. All rats used in this experiment had shown sustained glucose levels above 15 mmol/L. Animals were handled and fed as previously described. A concurrent control group was set, where animals received saline instead of streptozotocin. […] After this period an electrophysiological characterization of all rats were done and animals were split in two random treatment groups:
# (§2) Group II. Animals received the pharmaceutical composition with 100 μg of EGF in 1 ml, 3 days a week, by intraperitoneal route.
# One month after conclusion of the treatment with either EGF containing composition or saline, and […] after disease induction, animals were sacrificed by an overdose of anesthesia and perfused with saline buffer pH 7.4. A total of ten animals per experimental group were included for histomorphometric studies, and an equivalent number of rats were used for biochemical determinations. In both systems the sciatic nerves from both limbs were dissected. The procedures were similar to those described for the neuropathic damage prevention assay. Samples taken for histological and o histomorphometric studies were stained with hematoxilin/eosin and toluidine blue. At least five fragments of the same nerve were quantitatively studied using MADIP program. The fragments were included in OCT blocks, post-fixed with glutaraldehyde, and sliced horizontal and transversally. The histological indicators assessed have been described above as well as the procedures used for the processing and evaluation: • Total number of blood vessels (in epineural/perineural) in 10 microscopic fields using 10× as constant magnification in longitudinal cuts of the nerve. • Percentage of demyelinated fibers. Evaluated by averaging the values per microscopic field (×20, at least five fields). • Percentage of myelin or non-myelin fibers with lesions (dilated or distorted) per microscopic field (×20, at least five fields). • Percentage of endoneurial collagenization (moderated: 25 to 50%; severe: more than 50% of the endoneurial area in transversal slices, and at least three different sections.
# Ten animals from each group were used for the biochemical determinations in the is fragments of the sciatic nerve collected. The following biochemical parameters were studied:
# Redox Profile: • Total Superoxide Dismutase (tSOD) enzymatic activity total. • Catalase enzymatic activity. • Intra-axonal accumulation of total hydroperoxides (THP). • Intra-axonal accumulation of malonyldialdehyde (MDA).
# diabetic rats [2] = assay: Nociceptive threshold (NCT) pain test, prevention of diabetic neuropathy (Example 1); details: 75 μg EGF/ml
# Protocol: (§3) Male Wistar, with 200-250 grams of body weight, received a subcutaneous injection of streptozotocin, at 75 mg/kg in sodium citrate buffer. Water was then replaced by a 10% sucrose solution during the next 24 h, to prevent deaths caused by hypoglycemia. Glucose levels in blood were monitored every morning during the next 72 hours after the injection. Only animals with sustained glucose values above 15 mmol/L were used. Rats were housing at 4 per cage and fed in the conventional way. A concurrent group of other 80 rats received citrate buffer without streptozotocin and was handled in a similar fashion to the diabetic group.
# (§4) All treatments were conducted during 8 weeks, starting one week after streptozotocin injection. The composition used contained 75 μg of human recombinant EGF/ml. Several types of observations were conducted in the animals under study:
# The pain test, by application of an increasing pressure in the tail, was carried out at days 28 and 56 after initiation of the treatment, using 10 animals per each one of the experimental groups. NCT, expressed in grams, was determined by using an Ugo Basile type analgesimeter to apply a gradually increasing pressure to the tail of the animals until they developed a withdrawal reflex. In human diabetic neuropathy the nociceptive threshold is reduced.
# diabetic rats [3] = assay: Sensory conduction velocity, reversion study (Example 2); details: established diabetic neuropathy, 100 μg EGF in 1 ml i.p. 3 days a week for one month, day 120 after induction of diabetes
# Protocol: Distal supra-maximal stimulation in the sciatic-tibial route using bipolar electrodes is was used to study motor conduction. Determination of the conduction velocity in the sensory routes was carried out by applying a stimulus at a proximal point in the tail and measure it 3 cm away.
# as §1, §2
# To check the effect of the pharmaceutical composition on the restoration of sensory and motor fibers the conduction velocity of an electric impulse was measured at day 120 after induction of diabetes, after treating the animals with the pharmaceutical composition or saline. […]
# Lipoprotein Lipase (LPL) = assay: Lipoprotein lipase (LPL) enzymatic activity in sciatic nerve fragments, prevention study (Example 1)
# Protocol: as §3, with “group. The average value for glycemia during the 72 hours in this group was 5.87 mmol/L.” for “group.”
# as §4
# Fragments of the nerve from each animal were incubated together with 3 μg/ml heparin in Krebs-Ringer buffer at 37° C. for 50 minutes. Aliquots from these samples were then incubated in the presence of [^14C] triolein-phosphatidylcholine. ^14C labeled fatty acids were quantified by the classic methods. LPL activity was expressed in nanomoles of released fatty acids (RFA) per minute and gram of tissue.
# right sciatic nerve = assay: Laser Doppler Perfusion Imaging of blood perfusion of a peripheral nerve, prevention study (Example 1); details: diabetic rats, 75 μg EGF/ml, two months
# Protocol: as §3, with “group. The average value for glycemia during the 72 hours in this group was 5.87 mmol/L.” for “group.”
# as §4
# The right sciatic nerve of rats was used as a model. Ten animals were included for each one of the experimental groups. A similar number of non diabetic rats were used to calculate the reference values. A Laser Doppler Perfusion Imaging (LDPI) system was used. Data of perfusion in peripheral tissues to the nerve were programmed as zero values. Control animals received saline during two months before the measurement. […]
substance,measurement,setting,value
"EGF containing pharmaceutical composition: Composition with human recombinant EGF: 75 μg/ml in Example 1, 100 μg in 1 ml in Example 2, given intraperitoneally",Catalase activity,[1],86.1 ± 6.5 units per milligram of protein per minute
same,MDA (malonyldialdehyde),[1],0.1 ± 0.03 nmol/mg of protein
same,THP (total hydroperoxides),[1],55.8 ± 12.7 nmol/mg of protein
same,tSOD (total Superoxide Dismutase activity),[1],1988.4 ± 101.6 units per milligram of protein per minute
same,NCT,"diabetic rats [2]; 1 ml i.p. once weekly (Treatment group 1), day 28",125 ± 18 grams
same,NCT,"diabetic rats [2]; 1 ml i.p. three times a week (Treatment group 3), day 28",123 ± 16 grams
same,NCT,"diabetic rats [2]; 1 ml i.p. three times a week (Treatment group 3), day 56",121 ± 22 grams
same,"Velocity (sensitive conduction velocity, SCV)",diabetic rats [3],59.42 ± 3.35 m/s
same,LPL activity in the sciatic nerve,"Lipoprotein Lipase (LPL); Treatment group 1 (once weekly i.p., 8 weeks)",3.75 ± 2.2 nmoles RFA/min/g
same,LPL activity in the sciatic nerve,"Lipoprotein Lipase (LPL); Treatment group 3 (three times a week i.p., 8 weeks)",5.41 ± 1.83 nmoles RFA/min/g
same,Laser Doppler perfusion of the sciatic nerve,right sciatic nerve; 1 ml i.p. once weekly (Treatment group 1),653.4 ± 41.9 LDPI Units
same,Laser Doppler perfusion of the sciatic nerve,right sciatic nerve; 1 ml i.p. three times a week (Treatment group 3),988.7 ± 80.3 LDPI Units
